In PubChem BioAssay (NCI):
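Compound exposure: 48 hours, 5 concentrations, 96-well plates. Abbreviation: GI50, concentration required for 50% inhibition of growth. Definition used: TGI = concentration required for complete inhibition of growth.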

Columns and labels:
Assay in all cases: growth of human tumour cells (NCI), 48 h
SNB-75 CNS = test system: SNB-75 CNS
DU-145 prostate = test system: DU-145 prostate
MDA-MB-435 = test system: MDA-MB-435
NCI/ADR-RES ovarian = test system: NCI/ADR-RES ovarian
SF-295 CNS = test system: SF-295 CNS
ACHN renal = test system: ACHN renal
CCRF-CEM leukemia = test system: CCRF-CEM leukemia
SK-OV-3 ovarian = test system: SK-OV-3 ovarian
MALME-3M melanoma = test system: MALME-3M melanoma
U251 CNS = test system: U251 CNS
HCT-116 colon = test system: HCT-116 colon
IGROV1 ovarian = test system: IGROV1 ovarian
HL-60(TB) leukemia = test system: HL-60(TB) leukemia
SK-MEL-2 melanoma = test system: SK-MEL-2 melanoma
SK-MEL-5 melanoma = test system: SK-MEL-5 melanoma
NCI-H460 lung = test system: NCI-H460 lung
M14 melanoma = test system: M14 melanoma
HOP-62 NSCLC = test system: HOP-62 NSCLC
A549 NSCLC = test system: A549 NSCLC
SR leukemia = test system: SR leukemia
HT29 colon = test system: HT29 colon
A498 renal = test system: A498 renal
HOP-92 NSCLC = test system: HOP-92 NSCLC
COLO 205 colon = test system: COLO 205 colon
HS 578T breast = test system: HS 578T breast
SF-268 CNS = test system: SF-268 CNS
SF-539 CNS = test system: SF-539 CNS
RXF 393 renal = test system: RXF 393 renal
KM12 colon = test system: KM12 colon
OVCAR-4 ovarian = test system: OVCAR-4 ovarian
OVCAR-5 ovarian = test system: OVCAR-5 ovarian
K-562 leukemia = test system: K-562 leukemia
HCT-15 colon = test system: HCT-15 colon
UO-31 renal = test system: UO-31 renal
PC-3 prostate = test system: PC-3 prostate
MDA-MB-231 breast = test system: MDA-MB-231 breast
SNB-19 CNS = test system: SNB-19 CNS
RPMI-8226 leukemia = test system: RPMI-8226 leukemia
CAKI-1 renal = test system: CAKI-1 renal
SW-620 colon = test system: SW-620 colon
NCI-H226 lung = test system: NCI-H226 lung
786-0 renal = test system: 786-0 renal
SK-MEL-28 melanoma = test system: SK-MEL-28 melanoma
BT-549 breast = test system: BT-549 breast
T-47D breast = test system: T-47D breast
HCC-2998 colon = test system: HCC-2998 colon
SN12C renal = test system: SN12C renal
OVCAR-8 ovarian = test system: OVCAR-8 ovarian
TK-10 renal = test system: TK-10 renal
LOX IMVI melanoma = test system: LOX IMVI melanoma
NCI-H522 lung = test system: NCI-H522 lung
MCF7 breast = test system: MCF7 breast
UACC-62 melanoma = test system: UACC-62 melanoma
EKVX NSCLC = test system: EKVX NSCLC
NCI-H23 lung = test system: NCI-H23 lung
UACC-257 melanoma = test system: UACC-257 melanoma
MOLT-4 leukemia = test system: MOLT-4 leukemia
OVCAR-3 ovarian = test system: OVCAR-3 ovarian

SMILES: Cc1cc(F)cc(NS(=O)(=O)c2ccc(-c3cnc(C4CC4)o3)cc2)c1
- GI50 (SNB-75 CNS): 0.159 µM
- TGI (SNB-75 CNS): 1.57 µM
- GI50 (DU-145 prostate): 0.421 µM
- TGI (DU-145 prostate): 13.8 µM
- GI50 (MDA-MB-435): 0.0314 µM
- TGI (MDA-MB-435): 0.145 µM
- GI50 (NCI/ADR-RES ovarian): 0.12 µM
- TGI (NCI/ADR-RES ovarian): 5.29 µM
- GI50 (SF-295 CNS): 0.127 µM
- TGI (SF-295 CNS): 3.49 µM
- GI50 (ACHN renal): 0.648 µM
- TGI (ACHN renal): 12.8 µM
- GI50 (CCRF-CEM leukemia): 0.199 µM
- TGI (CCRF-CEM leukemia): 13.5 µM
- GI50 (SK-OV-3 ovarian): 0.748 µM
- TGI (SK-OV-3 ovarian): 15.4 µM
- GI50 (MALME-3M melanoma): 0.837 µM
- TGI (MALME-3M melanoma): 20.9 µM
- GI50 (U251 CNS): 0.451 µM
- TGI (U251 CNS): 14.5 µM
- GI50 (HCT-116 colon): 0.225 µM
- TGI (HCT-116 colon): 10.9 µM
- GI50 (IGROV1 ovarian): 0.252 µM
- TGI (IGROV1 ovarian): 13.6 µM
- GI50 (HL-60(TB) leukemia): 0.0993 µM
- TGI (HL-60(TB) leukemia): 0.769 µM
- GI50 (SK-MEL-2 melanoma): 1.03 µM
- TGI (SK-MEL-2 melanoma): 15.5 µM
- GI50 (SK-MEL-5 melanoma): 0.266 µM
- TGI (SK-MEL-5 melanoma): 1.89 µM
- GI50 (NCI-H460 lung): 0.142 µM
- TGI (NCI-H460 lung): 2.03 µM
- GI50 (M14 melanoma): 0.285 µM
- TGI (M14 melanoma): 13 µM
- GI50 (HOP-62 NSCLC): 0.362 µM
- TGI (HOP-62 NSCLC): 14.6 µM
- GI50 (A549 NSCLC): 0.662 µM
- TGI (A549 NSCLC): 14.3 µM
- GI50 (SR leukemia): 0.0464 µM
- TGI (SR leukemia): 5.91 µM
- GI50 (HT29 colon): 0.105 µM
- TGI (HT29 colon): 12.2 µM
- GI50 (A498 renal): 0.0762 µM
- TGI (A498 renal): 1.01 µM
- GI50 (HOP-92 NSCLC): 0.422 µM
- TGI (HOP-92 NSCLC): 5.04 µM
- GI50 (COLO 205 colon): 0.246 µM
- TGI (COLO 205 colon): 1.76 µM
- GI50 (HS 578T breast): 0.303 µM
- TGI (HS 578T breast): 7.85 µM
- GI50 (SF-268 CNS): 1.5 µM
- TGI (SF-268 CNS): 13.2 µM
- GI50 (SF-539 CNS): 0.271 µM
- TGI (SF-539 CNS): 2.99 µM
- GI50 (RXF 393 renal): 0.161 µM
- TGI (RXF 393 renal): 0.603 µM
- GI50 (KM12 colon): 0.183 µM
- TGI (KM12 colon): 11.6 µM
- GI50 (OVCAR-4 ovarian): 0.967 µM
- TGI (OVCAR-4 ovarian): 15.2 µM
- GI50 (OVCAR-5 ovarian): 0.926 µM
- TGI (OVCAR-5 ovarian): 15.5 µM
- GI50 (K-562 leukemia): 0.0494 µM
- TGI (K-562 leukemia): 12.3 µM
- GI50 (HCT-15 colon): 0.0836 µM
- TGI (HCT-15 colon): 11.4 µM
- GI50 (UO-31 renal): 0.848 µM
- TGI (UO-31 renal): 12.6 µM
- GI50 (PC-3 prostate): 0.342 µM
- TGI (PC-3 prostate): 12.3 µM
- GI50 (MDA-MB-231 breast): 0.827 µM
- TGI (MDA-MB-231 breast): 13.6 µM
- GI50 (SNB-19 CNS): 0.441 µM
- TGI (SNB-19 CNS): 15 µM
- GI50 (RPMI-8226 leukemia): 0.179 µM
- TGI (RPMI-8226 leukemia): 1.87 µM
- GI50 (CAKI-1 renal): 0.0869 µM
- TGI (CAKI-1 renal): 13.1 µM
- GI50 (SW-620 colon): 0.0988 µM
- TGI (SW-620 colon): 14.4 µM
- GI50 (NCI-H226 lung): 0.489 µM
- TGI (NCI-H226 lung): 7.82 µM
- GI50 (786-0 renal): 0.752 µM
- TGI (786-0 renal): 16.4 µM
- GI50 (SK-MEL-28 melanoma): 1.89 µM
- TGI (SK-MEL-28 melanoma): 16.6 µM
- GI50 (BT-549 breast): 1.01 µM
- TGI (BT-549 breast): 9.82 µM
- GI50 (T-47D breast): 0.268 µM
- TGI (T-47D breast): 21.8 µM
- GI50 (HCC-2998 colon): 0.739 µM
- TGI (HCC-2998 colon): 10.7 µM
- GI50 (SN12C renal): 0.773 µM
- TGI (SN12C renal): 11.6 µM
- GI50 (OVCAR-8 ovarian): 0.735 µM
- TGI (OVCAR-8 ovarian): 14.7 µM
- GI50 (TK-10 renal): 3.17 µM
- TGI (TK-10 renal): 16.7 µM
- GI50 (LOX IMVI melanoma): 0.301 µM
- TGI (LOX IMVI melanoma): 12.7 µM
- GI50 (NCI-H522 lung): 0.372 µM
- TGI (NCI-H522 lung): 10.8 µM
- GI50 (MCF7 breast): 0.0806 µM
- TGI (MCF7 breast): 12.1 µM
- GI50 (UACC-62 melanoma): 0.122 µM
- TGI (UACC-62 melanoma): 8.86 µM
- GI50 (EKVX NSCLC): 0.591 µM
- TGI (EKVX NSCLC): 13.9 µM
- GI50 (NCI-H23 lung): 0.585 µM
- TGI (NCI-H23 lung): 12.6 µM
- GI50 (UACC-257 melanoma): 1.77 µM
- TGI (UACC-257 melanoma): 12.1 µM
- GI50 (MOLT-4 leukemia): 0.366 µM
- TGI (MOLT-4 leukemia): 15.4 µM
- GI50 (OVCAR-3 ovarian): 0.0523 µM
- TGI (OVCAR-3 ovarian): 11 µM
